Entries after “also recorded” stand apart in the source; their conditions may differ. Like-named read-outs stand apart in the source and are kept apart here.
Key:
[1] = in vivo, po, 50 mg/kg
Experimental: (§1) Female C57BL6 mice, 5-6 weeks of age, were purchased from NCl. Animal experimentation was conducted under an approved IACUC protocol and complied with local and national guidelines. All MBZ polymorphs and tablets were administered by oral gavage at a dose of 50 mg/kg. Elacridar was administered by oral gavage at 50 mg/kg 2 hours prior to the administration of MBZ-C. Mice (3 animals/time point) were first anesthetized via intraperitoneal injection of 60 μl of a stock solution containing ketamine hydrochloride (75 mg/kg) (100 mg/ml; Ketamine HCl; Abbot Laboratories, Chicago, Ill., USA) and xylazine (7.5 mg/kg) (100 mg/ml; Xyla-ject®, Phoenix Pharmaceutical, St. Joseph, Mo., USA) in a sterile 0.9% NaCl solution. Then the blood samples were taken by puncturing and aspiring from the left heart ventricle. Blood samples were mixed with 5 mM EDTA and centrifuged at 10000 g for 5 min to obtain the plasma for further analysis.
(§2) Blood, brain and brain tumor tissues were harvested as a function of time after MBZ administration. To compare the pharmacokinetics of MBZ polymorphs, three cohorts of mice each were administered a single dose of 50 mg/kg by oral gavage. For the initial comparison studies, plasma samples were obtained at 1, 2.5, 4, 6, 8, 15, and 24 hours after MBZ administration while brain tissue was only collected at 6 hours. For the comparison studies of polymorph C with or without ELD, plasma and brain tissue samples were obtained at 2.5, 4, and 8 hours after MBZ administration. Brain tumor tissue samples were also obtained for polymorph C alone.
(§3) MBZ and the two metabolites, 2-amino-5-benzoyl-benzimidazole (MBZ-NH2, CAS 52329-60-9) and rac dihydro mebendazole (MBZ-OH, CAS 60254-95-7), were quantified in plasma, brain and brain tumor tissue. Tissue homogenates were prepared at a concentration of 200 mg/ml in plasma prior to extraction. Mebendazole and metabolites were extracted from 50 μl of plasma or tissue homogenates with 0.1 ml of methanol containing 0.5 μg/ml of the internal standard A620223.69. After centrifugation, the supernatant (60 μl) was mixed with water (40 μl) and then transferred into autosampler vials. […] The analytes were monitored using an AB Sciex triple quadrapole™ 5500 mass-spectrometric detector (Applied Biosystems, Foster City, Calif., USA) using electrospray ionization operating in positive mode. The spectrometer was programmed to allow the [MH+] ions of MBZ, MBZ-NH2, MBZ-OH, and A620223.69 at m/z 296.0, 238.0, 298.0, and 287.2, respectively to pass through the first quadrupole (Q1) and into the collision cell (Q2). The daughter ions for MBZ (m/z 263.9), MBZ-NH2 (m/z 105.1), MBZ-OH (m/z 266.0), and A620223.69 (m/z 124.1) were monitored through the third quadrupole (Q3). Calibration curves for MBZ and metabolites were computed using the area ratio peak of the analysis to the internal standard by using a quadratic equation with a 1/x weighting function over the range of 5 to 500 ng/ml (MBZ) and 1 to 500 ng/ml (metabolites) with dilutions of up to 1:100 (v:v). If one or more concentrations were below limits of quantification, a value of ½ the limit of quantification was assigned for pharmacokinetic calculations. If two consecutive time points were below limits of quantification, the last one was excluded from the analysis.
Mean plasma and brain concentrations were calculated at each time point for both MBZ and its metabolites. 1.045 g/ml was used as the average wet rodent brain tissue density (16). Pharmacokinetic parameters were calculated from mean MBZ and its metabolites concentration-time data using noncompartmental methods as analyzed in Phoenix® WinNonlin® version 6.3 (Pharsight Corp., Mountain View, Calif.). Cmax and Tmax were the observed values from the mean concentration data. The AUClast was calculated using the log-linear trapezoidal method. λz was determined from the slope of the terminal phase of the concentration-time profile. The terminal half-life (T1/2) was determined by dividing 0.693 by λz. […]

GL261 glioma cells = assay: Cytotoxicity in cultured GL261 cells (colorimetric assay, 72 h); format: cell-based, mouse; details: for cytotoxicity in GL261 cells: in vitro
Experimental: Cells were incubated with the indicated drugs for 72 h and the living cells were measured by the colorimetric assay.
(3,14) GL261 and D425 cells were maintained in DMEM media supplemented with 10% fetal bovine serum and antibiotics at 37° C. in humidified air containing 5% CO2.

in vivo = details: for mean B/P ratio: 6 h
Experimental: as §1
For brain distribution studies, mice were perfused under anesthesia with 20 ml ice-cold saline supplemented with 20 μl of 0.02% heparin by injecting slowly into the left heart ventricle using a 20 gauge needle. The right atrium was cut open before to allow the blood outflow. The yellow color of kidney indicated a good perfusion quality that was essential to deplete blood from the brain tissue. In GL261 tumor-bearing mice, GL261 tumor was distinguished from the normal brain by easily recognizable differences in color and shade. GL261 tumor was separated with a scalpel and the normal brain tissue was cut from the contralateral hemisphere. All brain samples were weighed and stored at −80° C. before processing.
as §2
as §3, with “calculations.” for “calculations. If two consecutive time points were below limits of quantification, the last one was excluded from the analysis.”

GL261-luc glioma = details: for mean survival: GL261 model, MBZ polymorphs 50 mg/kg oral; for survival of GL261 glioma-bearing mice: other benzimidazoles, even at higher doses than MBZ; for difference in survival (Mantel-Cox test): GL261-luc glioma-bearing mice, 100 mg/kg oral gavage from day 5
Experimental: All animal studies were approved by the Animal Care and Use Committee (ACUC) of the Johns Hopkins University. The intracranial implantation of GL261-luc in the frontal lobe and D425 cells in the cerebellum of the mouse brain followed the procedure described before (3,4). […] MBZ and other benzimidazoles were prepared by either mixing the power with PBS and sesame oil (1:1, v:v) (Sigma) or by grinding the tablets to powder and resuspending in the aforementioned PBS/sesame oil mixture. Elacridar was prepared as a 10 mg/ml suspension in 0.5% hydroxypropylmethylcellulose and 0.5% Tween 80 in PBS similarly as described before (15).
Animal survival data were analyzed by GraphPad Prism 5.0. The p-values were determined by a Mantel-Cox test. A p-value under 0.05 was accepted as statistically significant.

D425 medulloblastoma = assay: Orthotopic D425 medulloblastoma xenograft model (survival); format: in vivo, mouse; details: D425 model, elacridar alone; marginal
Experimental: The intracranial implantation of GL261-luc in the frontal lobe and D425 cells in the cerebellum of the mouse brain followed the procedure described before (3,4). Five days after tumor implantation, mice were gavaged with MBZ or the other benzimidazoles at 50 mg/kg five days a week. MBZ and other benzimidazoles were prepared by either mixing the power with PBS and sesame oil (1:1, v:v) (Sigma) or by grinding the tablets to powder and resuspending in the aforementioned PBS/sesame oil mixture. Elacridar was prepared as a 10 mg/ml suspension in 0.5% hydroxypropylmethylcellulose and 0.5% Tween 80 in PBS similarly as described before (15).

[2] = female, C57BL6, mouse, po, 50 mg/kg

In the case of `COC(=O)Nc1nc2ccc(C(O)c3ccccc3)cc2[nH]1` (racemic) [MBZ-OH, rac dihydro mebendazole], the “plasma AUC0-24 h of metabolite” value ([1]; mouse) is reported as 5,781 h*ng/ml.

With `COC(=O)Nc1nc2ccc(C(=O)c3ccccc3)cc2[nH]1` [MBZ-A, Mebendazole] the “plasma AUC0-24 h” value ([1]; female, C57BL6, mouse) was 3,052 h*ng/ml, the “plasma AUC0-24 h relative to MBZ-C” value ([1]; female, C57BL6, mouse) was 19% and the “cytotoxicity in GL261 cells” value (GL261 glioma cells) was “equal cytotoxicity”. For the same compound, the “mean B/P ratio” value (in vivo; [2]) was 0.32.

For `COC(=O)Nc1nc2ccc(C(=O)c3ccccc3)cc2[nH]1` [MBZ-B, Mebendazole], the “plasma AUC0-24 h” value ([1]; female, C57BL6, mouse) was 26,474 h*ng/ml, the “plasma AUC0-24 h relative to MBZ-C” value ([1]; female, C57BL6, mouse) was 165% and the “cytotoxicity in GL261 cells” value (GL261 glioma cells) was “equal cytotoxicity”. For the same compound, the “mean B/P ratio” value (in vivo; [2]) was 0.64, the “toxicity in GL261 glioma-bearing mice” value (GL261-luc glioma; 50 mg/kg oral) was “presumably died from drug toxicity” and the “treatment-related death among 6 treated mice” value (GL261-luc glioma; GL261 glioma-bearing mice, 50 mg/kg oral) was 1. The mean survival (GL261-luc glioma) was 45 days.

For `COC(=O)Nc1nc2ccc(C(=O)c3ccccc3)cc2[nH]1` [MBZ-C, Mebendazole], the “plasma AUC0-24 h” value ([1]; female, C57BL6, mouse) was 16,039 h*ng/ml, the “cytotoxicity in GL261 cells” value (GL261 glioma cells) was “equal cytotoxicity” and the Kp (in vivo; female, C57BL6, mouse, AUC0-24h B/P ratio) was 0.82. For the same compound, the “brain Cmax, equivalent concentration” value (in vivo; female, C57BL6, mouse, po) was 7.1 µM, the peak brain concentration (in vivo; [2]) was 2,016 ng/g and the Kp at 8 h (in vivo; female, C57BL6, mouse, po, 50 mg/kg, brain/plasma (B/P) ratio on average) was 0.75. The “change of brain concentration of MBZ in terms of AUC0-8h” value (in vivo; mouse, po, 50 mg/kg) was “did not significantly change”, the “time of peak brain concentration after oral administration” value (in vivo; mouse, po, 50 mg/kg) was “Four” and the mean survival (GL261-luc glioma) was 48.5 days. For the same compound, the “efficacy in GL261 glioma model” value (GL261-luc glioma; oral gavage 50 mg/kg, from day 5 after implantation, 50 mg/kg) was “best efficacy”.

In the case of `Nc1nc2ccc(C(=O)c3ccccc3)cc2[nH]1` [MBZ-NH2, 2-amino-5-benzoyl-benzimidazole], the “plasma AUC0-24 h of metabolite” value ([1]; female, C57BL6, mouse) is reported as 10,516 h*ng/ml, the “cytotoxicity in GL261 cells” value (GL261 glioma cells) is reported as “only a marginal cytotoxicity; also recorded: least cytotoxic” and the “B/P ratio of MBZ-NH2” value (in vivo; female, C57BL6, mouse) is reported as 0.12. The “elevation of B/P ratio by co-administration of elacridar” value (in vivo; female, C57BL6, mouse) was 2.5 folds, the “distribution in GL261 brain tumor vs contralateral normal brain tissue” value (in vivo; [2]) was “preferentially accumulated in the GL261 brain tumor” and the “elevation of AUC0-8 h by co-administration of elacridar” value (in vivo; mouse) was 2.4 folds. For the same compound, the “brain levels of metabolite in terms of Cmax and AUC0-24 h” value (in vivo; mouse, po, 50 mg/kg) was “much lower levels than MBZ-OH” and the “distribution in GL261 brain tumor vs contralateral normal brain tissue” value (in vivo; mouse, po, 50 mg/kg) was “significantly higher levels than in the contralateral brain”.

With `CCCSc1ccc2nc(NC(=O)OC)[nH]c2c1` [albendazole] the “survival of GL261 glioma-bearing mice” value (GL261-luc glioma) was “failed or only marginally improved the survival”.

With `COc1cc2c(cc1OC)CN(CCc1ccc(NC(=O)c3cccc4c(=O)c5cccc(OC)c5[nH]c34)cc1)CC2` [elacridar] the IC50 (GL261 glioma cells; GL261 mouse glioma cells) was 5.8 µM, the median survival (GL261-luc glioma; GL261, single agent 50 mg/kg, control 29.5 days) was 34 days and the survival benefit (D425 medulloblastoma) was 9 days.

With `COC(=O)Nc1nc2ccc(Sc3ccccc3)cc2[nH]1` [fenbendazole] the “difference in survival (Mantel-Cox test)” value (GL261-luc glioma) was “not significant” and the “survival of GL261 glioma-bearing mice” value (GL261-luc glioma) was “failed or only marginally improved the survival”.

In the case of `COC(=O)Nc1nc2cc(C(=O)c3ccc(F)cc3)ccc2[nH]1` [flubendazole], the “difference in survival (Mantel-Cox test)” value (GL261-luc glioma) is reported as “not significant” and the “survival of GL261 glioma-bearing mice” value (GL261-luc glioma) is reported as “failed or only marginally improved the survival”.

In the case of `COC(=O)Nc1nc2cc([S+]([O-])c3ccccc3)ccc2[nH]1` (stereo not drawn) [oxifendazole], the “difference in survival (Mantel-Cox test)” value (GL261-luc glioma) is reported as “not significant” and the “survival of GL261 glioma-bearing mice” value (GL261-luc glioma) is reported as “failed or only marginally improved the survival”.

For `c1ccc2[nH]c(-c3cscn3)nc2c1` [thiabendazole, Thiabendazole], the “difference in survival (Mantel-Cox test)” value (GL261-luc glioma) was “not significant” and the “survival of GL261 glioma-bearing mice” value (GL261-luc glioma) was “failed or only marginally improved the survival”.
